The source made the active and inactive calls. The calls are words filed in the database; no cut-off is given here.
Legend:
Cryptococcus neoformans [1] = experiment: Antimicrobial activity against Cryptococcus neoformans serotype A; assay type: functional
Aspergillus fumigatus = experiment: Antimicrobial activity against Aspergillus fumigatus at 8 to 32 ug/ml; assay type: functional, organism-based
Cryptococcus neoformans [2] = experiment: Antimicrobial activity against Cryptococcus neoformans serotype D; assay type: functional
Burkholderia sp. = experiment: Antimicrobial activity against Burkholderia sp. at 8 to 32 ug/ml; assay type: functional
Streptomyces platensis = experiment: Antimicrobial activity against Streptomyces platensis at 8 to 32 ug/ml; assay type: functional

## OC(Cn1cncn1)(Cn1cncn1)c1ccc(F)cc1F [FLUCONAZOLE]
Cryptococcus neoformans [1]
  MIC: ≥ 64 µg/mL
Aspergillus fumigatus
  Activity: inactive
Cryptococcus neoformans [2]
  MIC: ≥ 64 µg/mL
Burkholderia sp.
  Activity: inactive
Streptomyces platensis
  Activity: inactive

From ChEMBL document CHEMBL1649515, “Heteroresistance to fluconazole in Cryptococcus neoformans is intrinsic and associated with virulence” (2009)
